Values belong to the molecule of their own block, whether it stands above or below them.
Key:
[1] = Antioxidant activity assessed as DPPH radical scavenging activity; format: functional
[2] = Antioxidant activity assessed as nitric oxide radical scavenging activity; format: functional

SMILES: Fc1ccc2c(c1)CCC(c1nnc(-c3ccccc3)o1)O2 (stereo unspecified)
IC50 [1]: 28.7 µM | IC50 [2]: 85.9 µM

SMILES: COc1cc(-c2nnc(C3CCc4cc(F)ccc4O3)o2)cc(OC)c1OC (stereo unspecified)
IC50 [1]: 43.2 µM | IC50 [2]: 87 µM

SMILES: Fc1ccc2c(c1)CCC(c1nnc(-c3cn(Cc4c(F)cccc4F)nn3)o1)O2 (stereo unspecified)
IC50 [1]: 23.1 µM | IC50 [2]: 88 µM

SMILES: O=[N+]([O-])c1ccc(-c2nnc(C3CCc4cc(F)ccc4O3)o2)cc1 (stereo unspecified)
IC50 [1]: 28.7 µM | IC50 [2]: 84.8 µM

SMILES: Fc1ccc2c(c1)CCC(c1nnc(-c3cnccn3)o1)O2 (stereo unspecified)
IC50 [1]: 73.4 µM | IC50 [2]: 87 µM

SMILES: Nc1ccc(-c2nnc(C3CCc4cc(F)ccc4O3)o2)cc1 (stereo unspecified)
IC50 [1]: 34.9 µM | IC50 [2]: 89.1 µM

SMILES: Fc1ccc2c(c1)CCC(c1nnc(C3CCc4cc(F)ccc4O3)o1)O2 (stereo unspecified)
IC50 [1]: 29 µM | IC50 [2]: 87 µM

SMILES: O=C1O[C@H]([C@@H](O)CO)C(O)=C1O [ASCORBIC ACID]
IC50 [1]: 44.2 µM | IC50 [2]: 42.6 µM

Continued, values first:

IC50 [1]: 17.2 µM | IC50 [2]: 85.9 µM
SMILES: Fc1ccc2c(c1)CCC(c1nnc(-c3ccc(Cl)cc3)o1)O2 (stereo unspecified)

IC50 [1]: 29 µM | IC50 [2]: 85.9 µM
SMILES: Fc1ccc2c(c1)CCC(c1nnc(-c3cc(F)c(F)c(F)c3F)o1)O2 (stereo unspecified)

IC50 [1]: 23.1 µM | IC50 [2]: 84.8 µM
SMILES: Fc1ccc2c(c1)CCC(c1nnc(-c3cccc(Cl)c3)o1)O2 (stereo unspecified)

IC50 [1]: 34.9 µM | IC50 [2]: 73.9 µM
SMILES: O=c1cc(-c2nnc(C3CCc4cc(F)ccc4O3)o2)oc2ccc(F)cc12 (stereo unspecified)

IC50 [1]: 40.8 µM | IC50 [2]: 88 µM
SMILES: Fc1ccc2c(c1)CCC(c1nnc(-c3ccccc3Cl)o1)O2 (stereo unspecified)
